Test results taken from patent US11459547B2, “Method for producing osteoblast cluster using human iPS cells” (priority 2017, dated 2022).
Entries after “also recorded” stand apart in the source; their conditions may differ.

What was measured:
Type in all cases: cell-based
[1] = system: human iPS cell embryoid bodies; assay: Comparative Example: retinoic acid culture instead of mesoderm induction, then osteoblastic differentiation induction; shape of cell construct; details: ES medium 2 days, then 2 days with 1 µM retinoic acid, then osteoblastic differentiation induction without mesoderm induction step
Experimental: iPS cells were obtained in accordance with the method described in (1-1) above, and subjected to culture in an ES medium corresponding to (1-2) above for 2 days. The resultant embryoid bodies of the iPS cells were collected, and further cultured for 2 days using the above-mentioned ES medium having blended therein 1 µM retinoic acid (all-trans retinoic acid: Sigma). After that, the step of inducing differentiation into osteoblasts described in (1-4) above was performed without the step of inducing differentiation into mesoderm cells described in (1-3) above.

[2] = system: human iPS cell embryoid bodies (409B2); assay: Mesoderm differentiation induction of iPS cell embryoid bodies, immunofluorescent staining of mesodermal marker Brachyury; details: embryoid body formation 1 day, then static culture 5 days in mesoderm differentiation induction medium with 30 CHIR99021 and/or 5 cyclopamine; the label names the compound(s) present
Experimental: The iPS cells were washed with phosphate buffered saline (PBS), and treated with 1 ml of a CTK solution (0.25% trypsin, 0.1 mg/ml collagenase IV, 10 mM CaCl2), 20% KSR) at 37° C. for 1 minute. After that, the CTK solution was removed by aspiration, and 1 ml of PBS was added. PBS was removed, and only the feeder cells exfoliated from the culture plate were removed by aspiration as much as possible. After that, adherent iPS cells remaining in the culture plate were collected using 5 ml of ES medium (RCHEMD001) supplemented with 4 ng/ml FGF. The resultant cell suspension was transferred to a low-attachment culture dish (Thermo Fisher Scientific, Cat. #150239), and subjected to static culture for 1 day to induce the formation of embryoid bodies. As a control, the formation of embryoid bodies was performed for 0 days or 4 days.
After static culture had been performed for 1 day, iPS cell embryoid bodies were collected. […] As a control, osteoblastic differentiation induction described in (1-4) was performed after the embryoid body formation described in (1-2) without mesoderm differentiation induction. For the evaluation of mesoderm differentiation induction, immunofluorescent staining using a mesodermal marker Brachyury was performed.

[3] = system: human iPS cell embryoid bodies (409B2); assay: Mesoderm induction ratio by immunofluorescent staining of Brachyury; details: embryoid body formation 1 day; mesoderm differentiation induction medium with or free of CHIR99021 or cyclopamine; the label names the compound(s) present; 17% in the absence of both
Experimental: The immunostaining was pertained using: anti-Brachyury polyclonal antibody (AF2085, R&D SYSTEMS) as a primary antibody; Alexa Fluor594-labeled anti-goat IgG antibody (Thermo Fisher Scientific) as a secondary antibody; and Hoechst 33258 (Thermo Fisher Scientific) for nuclear staining.
The mesoderm induction ratio was determined from the ratio of Brachyury-positive embryoid bodies in all embryoid bodies present in an immunostaining photographic image.

[4] = system: human iPS cell-derived mesoderm cell constructs; assay: Osteoblastic differentiation induction with small-molecule compound, histochemical observation of mineralization (von Kossa)
Experimental: As a control, non-adherent culture was performed without shaking. The medium was changed every 7 days. The resultant sample was subjected to immunofluorescent staining, specifically hematoxylin and eosin (H&E) staining, von Kossa staining, or Osteocalcin, and subjected to histochemical observation.

Q: How did the “shape of resultant osteoblast-like cell construct” value [1] turn out when `CC1=C(/C=C/C(C)=C/C=C/C(C)=C/C(=O)O)C(C)(C)CCC1` [retinoic acid, all-trans retinoic acid] was run?
A: not solid cell constructs, but were bag-like; also recorded: hollow bag-like (sac-like) shape

Q: Which “expression of the mesodermal marker (Brachyury), immunofluorescent staining” value [2] does the source give for `CC1=C2C[C@H]3[C@@H](CC=C4C[C@@H](O)CC[C@@]43C)[C@@H]2CC[C@]12O[C@@H]1C[C@H](C)CN[C@H]1[C@H]2C` [cyclopamine] here?
A: the expression of Brachyury was found, though not as marked as in the presence of CHIR99021

Q: How did the “expression of the mesodermal marker (Brachyury), immunofluorescent staining” value [2] turn out when `Cc1c[nH]c(-c2cnc(NCCNc3ccc(C#N)cn3)nc2-c2ccc(Cl)cc2Cl)n1` [CHIR99021] was run?
A: marked expression of Brachyury was similarly found

Q: What about the “mesoderm induction ratio (ratio of Brachyury-positive embryoid bodies in all embryoid bodies)” value [3] of the same compound?
A: 57%

Q: `CC(=O)N(O)CCCCCNC(=O)CCC(=O)N(O)CCCCCNC(=O)CCC(=O)N(O)CCCCCN` [desferrioxamine] was tested. Which “mineralization of cell construct on day 30” value ([4]; day 30 of the osteoblastic differentiation induction, 10 μM desferrioxamine) did it give?
A: markedly mineralized cell construct

Q: What about the “mineralization of osteoblast construct” value ([4]; osteoblastic differentiation induction medium supplemented with 10 μM desferrioxamine or 1 μM simvastatin, non-adherent shaking culture) of the same compound?
A: markedly mineralized osteoblast construct
